From patent publication US20100204203A1, “Chemical Compounds 637: Pyridopyrimidinediones as PDE4 Inhibitors” (priority 2007, published 2010)

The compounds below were run against T1, recombinant Human Phosphodiesterase B2 (PDE4B2) (Homo sapiens, UniProt Q07343) (assay: Human Phosphodiesterase B2 Radiometric Assay (yttrium silicate SPA beads, [3H]cyclic AMP)). Details: recombinant human PDE4B2, radiometric SPA assay, 8 nM [3H]cyclic AMP; read-out: PDE4B2 pIC50 (converted).
Assay type: biochemical
Method in brief: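 Read-out is scintillation proximity: yttrium silicate beads (with 18 mM ZnSO4, added to stop the reaction) bind 5′AMP formed from 8 nM [3H]cAMP over 20 min. Beforehand, compound and 0.1 mg/mL enzyme were preincubated 30 min at 30 °C in pH 7.5 HEPES buffer with MgCl2, EGTA and Brij 35; pIC50 values were curve-fitted.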

T1 sequence (Q07343 1-564 isoform Q07343-2): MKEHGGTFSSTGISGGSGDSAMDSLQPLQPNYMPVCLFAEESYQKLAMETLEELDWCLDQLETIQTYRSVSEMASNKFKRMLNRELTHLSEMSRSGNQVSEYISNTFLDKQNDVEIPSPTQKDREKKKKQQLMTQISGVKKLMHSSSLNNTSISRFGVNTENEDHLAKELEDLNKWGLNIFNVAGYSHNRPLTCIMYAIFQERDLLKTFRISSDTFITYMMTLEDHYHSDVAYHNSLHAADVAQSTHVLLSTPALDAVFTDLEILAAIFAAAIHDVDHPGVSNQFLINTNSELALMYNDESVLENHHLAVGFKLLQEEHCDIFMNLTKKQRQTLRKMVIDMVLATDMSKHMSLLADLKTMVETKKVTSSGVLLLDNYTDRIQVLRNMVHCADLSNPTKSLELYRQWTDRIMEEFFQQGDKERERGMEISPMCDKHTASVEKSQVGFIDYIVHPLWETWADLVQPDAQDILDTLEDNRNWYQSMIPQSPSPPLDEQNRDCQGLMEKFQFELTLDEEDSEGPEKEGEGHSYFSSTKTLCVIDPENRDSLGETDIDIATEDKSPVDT

Row | IC50 [nM] | SMILES
1 | 0.0398 | Cc1cc(C(=O)N[C@H]2CC[C@@H](n3c(=O)c4cc(F)cnc4n(-c4cccc(-c5ccc(CNCCC(C)C)cc5)c4)c3=O)CC2)nn1C [Example 115, N-{cis-4-[6-fluoro-1-(4′-{[(3-methylbutyl)amino]methyl}biphenyl-3-yl)-2,4-dioxo-1,4-dihydropyrido[2,3-d]-pyrimidin-3(2H)-yl]cyclohexyl}-1,5-dimethyl-1H-pyrazole-3-carboxamide]
2 | 0.0316 | C[C@@H]1COCCN1Cc1cc(O)ccc1-c1cccc(-n2c(=O)n([C@H]3CC[C@@H](NCc4cn5cc(F)ccc5n4)CC3)c(=O)c3cc(F)cnc32)c1 [Example 316, 6-fluoro-3-(cis-4-{[(6-fluoroimidazo[1,2-a]pyridin-2-yl)methyl]amino}cyclohexyl)-1-(4′-hydroxy-2′-{[(3R)-3-methylmorpholin-4-yl]methyl}biphenyl-3-yl)pyrido[2,3-d]pyrimidine-2,4(1H,3H)-dione]
3 | 0.158 | C[C@H](CO)NCc1ccc(-c2cccc(-n3c(=O)n([C@H]4CC[C@@H](NC(=O)c5cn6cc(F)ccc6n5)CC4)c(=O)c4cc(F)cnc43)c2)cc1 [Example 59]
4 | 0.0251 | O=C(N[C@H]1CC[C@@H](n2c(=O)c3cc(F)cnc3n(-c3cccc(-c4ccc(CO)cc4)c3)c2=O)CC1)c1cn2cc(F)ccc2n1 [Example 25, 6-fluoro-N-{cis-4-[6-fluoro-1-[4′-(hydroxymethyl)biphenyl-3-yl]-2,4-dioxo-1,4-dihydropyrido[2,3-d]pyrimidin-3(2H)-yl]cyclohexyl}imidazo[1,2-a]pyridine-2-carboxamide.]

Each compound was assayed against T1, recombinant Human Phosphodiesterase B2 (PDE4B2) (assay: Human Phosphodiesterase B2 Alpha Screen Assay). Details: Alpha Screen cAMP kit; 15 min preincubation, 60 min reaction at room temperature; Xlfit model 205; read-out: PDE4B2 pIC50 (converted).
Assay type: biochemical
Protocol: Human Phosphodiesterase B2 Alpha Screen Assay
The assay uses recombinant Human Phosphodiesterase B2 (PDE4B2) produced in house (PrAZL0133), stored at −20° C. The substrate uses cAMP, part of the Alpha Screen cAMP kit (Perkin Elmer, Cat# 6760625M), stored at 4° C. The Alpha Screen kit also includes biotinylated cAMP, acceptor and donor beads.
The assay additions were as follows: Test compounds and controls were added to white 384-well flat-bottom plates (Greiner, Cat#781075), 0.2 μl in 100% DMSO, followed by 10 μl PDE4B2 in reaction buffer. The reaction buffer constitution was: 50 mM Tris (pH 7.5), 8.3 mM MgCl2, 1.7 mM EGTA and 0.01% (w/v) Brij®35. The enzyme and the compounds were incubated at room temperature for 15 minutes. Then 10 μl cAMP in reaction buffer was added. The assay was stopped after 60 minutes incubation at room temperature by adding 10 μl acceptor beads in detection buffer with 40 mM EDTA. The detection buffer constitution was: 5 mM Tris (pH 7.5), 0.1% (w/v) BSA and 0.1% (v/v) Tween 20. This addition followed by an addition of 10 μl donor beads in detection buffer, with biotinylated cAMP. The plates were then incubated, dark at room temperature, for 5 hours followed by measurement on a Fusion™-α analyser. pIC50 values (presented in Table 14) were determined using Xlfit curve fitting using model 205.

Row | IC50 [nM] | SMILES
5 | 3.16 | O=C(N[C@H]1CC[C@@H](n2c(=O)c3cc(F)cnc3n(Cc3ccc(F)cc3)c2=O)CC1)c1cn2ccccc2n1 [Example 9, N-{cis-4-[6-fluoro-1-(4-fluorobenzyl)-2,4-dioxo-1,4-dihydropyrido[2,3-d]pyrimidin-3(2H)-yl]cyclohexyl}imidazo[1,2-a]pyridine-2-carboxamide]
6 | 0.631 | O=C(N[C@H]1CC[C@@H](n2c(=O)c3cc(F)cnc3n(C3CCCC3)c2=O)CC1)c1cn2ccccc2n1 [Example 7, N-[cis-4-(1-cyclopentyl-6-fluoro-2,4-dioxo-1,4-dihydropyrido[2,3-d]pyrimidin-3(2H)-yl)cyclohexyl]imidazo[1,2-a]pyridine-2-carboxamide]
